In ChEMBL document CHEMBL3046293, “Fungicidal Activities of -Methoxyphenylacetic Acid Derivatives” (2002):

Legend:
Type in all cases: functional
Botrytis cinerea [1] = test: Fungicidal activity against Botryotinia fuckeliana assessed as cucumber gray mold disease control at 7.8 ppm treated 24 hr before inoculation by preventive manner
Podosphaera fuliginea [2] = test: Fungicidal activity against Podosphaera fuliginea assessed as cucumber powdery mildew disease control at 7.8 ppm treated 24 hr before inoculation by preventive manner
Pyricularia oryzae [3] = test: Fungicidal activity against Magnaporthe oryzae Cav. race 003 assessed as rice blast disease control at 31.3 ppm treated 24 hr before inoculation by preventive manner
Podosphaera fuliginea [4] = test: Fungicidal activity against Podosphaera fuliginea assessed as cucumber powdery mildew control at 7.8 ppm foliar application 24 hr before inoculation by preventive manner
Podosphaera fuliginea [5] = test: Fungicidal activity against Podosphaera fuliginea assessed as cucumber powdery mildew control at 0.125 ppm foliar application 24 hr after inoculation by curative manner
Podosphaera fuliginea [6] = test: Fungicidal activity against Podosphaera fuliginea assessed as cucumber powdery mildew control at 0.5 ppm foliar application 24 hr after inoculation by curative manner
Podosphaera fuliginea [7] = test: Fungicidal activity against Podosphaera fuliginea assessed as cucumber powdery mildew control at 0.5 ppm foliar application 24 hr before inoculation by preventive manner
Podosphaera fuliginea [8] = test: Fungicidal activity against Podosphaera fuliginea assessed as cucumber powdery mildew control at 2 ppm foliar application 24 hr after inoculation by curative manner
Podosphaera fuliginea [9] = test: Fungicidal activity against Podosphaera fuliginea assessed as cucumber powdery mildew control at 2 ppm foliar application 24 hr before inoculation by preventive manner
Podosphaera fuliginea [10] = test: Fungicidal activity against Podosphaera fuliginea assessed as cucumber powdery mildew control at 0.125 ppm foliar application 24 hr before inoculation by preventive manner
Podosphaera fuliginea [11] = test: Fungicidal activity against Podosphaera fuliginea assessed as cucumber powdery mildew control at 7.8 ppm foliar application 24 hr after inoculation by curative manner
Botrytis cinerea [12] = test: Fungicidal activity against Botryotinia fuckeliana assessed as cucumber gray mold disease control at 7.8 ppm foliar application 24 hr before inoculation by preventive manner
Botrytis cinerea [13] = test: Fungicidal activity against Botryotinia fuckeliana assessed as cucumber gray mold disease control at 125 ppm foliar application 24 hr after inoculation by curative manner
Botrytis cinerea [14] = test: Fungicidal activity against Botryotinia fuckeliana assessed as cucumber gray mold disease control at 31.3 ppm foliar application 24 hr after inoculation by curative manner
Botrytis cinerea [15] = test: Fungicidal activity against Botryotinia fuckeliana assessed as cucumber gray mold disease control at 31.3 ppm foliar application 24 hr before inoculation by preventive manner
Botrytis cinerea [16] = test: Fungicidal activity against Botryotinia fuckeliana assessed as cucumber gray mold disease control at 2 ppm foliar application 24 hr after inoculation by curative manner
Botrytis cinerea [17] = test: Fungicidal activity against Botryotinia fuckeliana assessed as cucumber gray mold disease control at 7.8 ppm foliar application 24 hr after inoculation by curative manner
Botrytis cinerea [18] = test: Fungicidal activity against Botryotinia fuckeliana assessed as cucumber gray mold disease control at 125 ppm foliar application 24 hr before inoculation by preventive manner
Botrytis cinerea [19] = test: Fungicidal activity against Botryotinia fuckeliana assessed as cucumber gray mold disease control at 2 ppm foliar application 24 hr before inoculation by preventive manner
Thanatephorus cucumeris [20] = test: Fungicidal activity against Thanatephorus cucumeris assessed as rice sheath blight disease control at 7.8 ppm foliar application for 24 hr after inoculation by curative manner
Thanatephorus cucumeris [21] = test: Fungicidal activity against Thanatephorus cucumeris assessed as rice sheath blight disease control at 125 ppm foliar application for 24 hr after inoculation by curative manner
Thanatephorus cucumeris [22] = test: Fungicidal activity against Thanatephorus cucumeris assessed as rice sheath blight disease control at 31.3 ppm foliar application for 24 hr before inoculation by preventive manner
Thanatephorus cucumeris [23] = test: Fungicidal activity against Thanatephorus cucumeris assessed as rice sheath blight disease control at 31.3 ppm foliar application for 24 hr after inoculation by curative manner
Thanatephorus cucumeris [24] = test: Fungicidal activity against Thanatephorus cucumeris assessed as rice sheath blight disease control at 2 ppm foliar application for 24 hr before inoculation by preventive manner
Thanatephorus cucumeris [25] = test: Fungicidal activity against Thanatephorus cucumeris assessed as rice sheath blight disease control at 7.8 ppm foliar application for 24 hr before inoculation by preventive manner
Thanatephorus cucumeris [26] = test: Fungicidal activity against Thanatephorus cucumeris assessed as rice sheath blight disease control at 2 ppm foliar application for 24 hr after inoculation by curative manner
Thanatephorus cucumeris [27] = test: Fungicidal activity against Thanatephorus cucumeris assessed as rice sheath blight disease control at 125 ppm foliar application for 24 hr before inoculation by preventive manner
Pyricularia oryzae [28] = test: Fungicidal activity against Magnaporthe oryzae Cav. race 003 assessed as rice blast disease control at 31.3 ppm foliar application for 24 hr before inoculation by preventive manner
Pyricularia oryzae [29] = test: Fungicidal activity against Magnaporthe oryzae Cav. race 003 assessed as rice blast disease control at 125 ppm foliar application for 24 hr before inoculation by preventive manner
Pyricularia oryzae [30] = test: Fungicidal activity against Magnaporthe oryzae Cav. race 003 assessed as rice blast disease control at 2 ppm foliar application for 24 hr before inoculation by preventive manner
Pyricularia oryzae [31] = test: Fungicidal activity against Magnaporthe oryzae Cav. race 003 assessed as rice blast disease control at 7.8 ppm foliar application for 24 hr before inoculation by preventive manner

For `CNC(=O)C(OC)c1cccc(COc2ccc(C)cc2C)c1` (centres undefined), the Activity (Botrytis cinerea [1]) was 50%, the Activity (Podosphaera fuliginea [2]) was 90% and the Activity (Pyricularia oryzae [3]) was 90%.
`OC(c1ccc(Cl)cc1)(c1cncnc1)c1ccccc1Cl` (centres undefined) [FENARIMOL] was tested, and the Activity (Podosphaera fuliginea [4]) was 100%, the Activity (Podosphaera fuliginea [5]) was 80% and the Activity (Podosphaera fuliginea [6]) was 99%. For the same molecule, the Activity (Podosphaera fuliginea [7]) was 80%, the Activity (Podosphaera fuliginea [8]) was 99% and the Activity (Podosphaera fuliginea [9]) was 95%. The Activity (Podosphaera fuliginea [10]) was 0% and the Activity (Podosphaera fuliginea [11]) was 100%.
With `CC(C)NC(=O)N1CC(=O)N(c2cc(Cl)cc(Cl)c2)C1=O` [IPRODIONE] the Activity (Botrytis cinerea [12]) was 50%, the Activity (Botrytis cinerea [13]) was 80% and the Activity (Botrytis cinerea [14]) was 70%. For the same molecule, the Activity (Botrytis cinerea [15]) was 100%, the Activity (Botrytis cinerea [16]) was 20% and the Activity (Botrytis cinerea [17]) was 60%. For the same molecule, the Activity (Botrytis cinerea [18]) was 100% and the Activity (Botrytis cinerea [19]) was 20%.
With `CNC(=O)C(OC)c1cccc(COc2cc(C)cc(C)c2C)c1` (centres undefined) the Activity (Botrytis cinerea [1]) was 50%, the Activity (Podosphaera fuliginea [2]) was 90% and the Activity (Pyricularia oryzae [3]) was 90%.
`CC(C)Oc1cccc(NC(=O)c2ccccc2C(F)(F)F)c1` [FLUTOLANIL] showed an Activity (Thanatephorus cucumeris [20]) of 70%, an Activity (Thanatephorus cucumeris [21]) of 80% and an Activity (Thanatephorus cucumeris [22]) of 80%. The Activity (Thanatephorus cucumeris [23]) was 80%, the Activity (Thanatephorus cucumeris [24]) was 20% and the Activity (Thanatephorus cucumeris [25]) was 70%. It also gave an Activity (Thanatephorus cucumeris [26]) of 40% and an Activity (Thanatephorus cucumeris [27]) of 90%.
In the case of `C/C(=N/Nc1nc(C)cc(C)n1)c1ccccc1C` [FERIMZONE], the Activity (Pyricularia oryzae [28]) is reported as 90%, the Activity (Pyricularia oryzae [29]) is reported as 97% and the Activity (Pyricularia oryzae [30]) is reported as 30%. For the same molecule, the Activity (Pyricularia oryzae [31]) was 50%.
